Laboratory results from ChEMBL document CHEMBL5029160, “An Activity-Based Probe for Cathepsin K Imaging with Excellent Potency and Selectivity” (J Med Chem, 2021).
Activity calls are given as the source filed them. The calls are words filed in the database; no cut-off is given here.

What was measured:
[1] = target: Cathepsin S (Homo sapiens) (UniProt P25774); test: Inhibition of human cathepsin S assessed as ratio of Kinact/Ki using Z-Phe-Val-Arg-pNA as substrate incubated for 60 mins by fluorometric assay
Sequence of Cathepsin S (Homo sapiens) (P25774 115-331 limits assumed): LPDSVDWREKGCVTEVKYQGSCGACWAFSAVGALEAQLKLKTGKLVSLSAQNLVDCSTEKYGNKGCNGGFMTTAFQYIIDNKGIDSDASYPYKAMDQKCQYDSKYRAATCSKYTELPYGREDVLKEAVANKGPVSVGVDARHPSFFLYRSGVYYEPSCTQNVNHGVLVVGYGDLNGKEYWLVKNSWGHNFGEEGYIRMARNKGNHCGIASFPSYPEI

[2] = target: Procathepsin L (Homo sapiens) (UniProt P07711); test: Inhibition of human cathepsin L assessed as residual activity using Z-Phe-Arg-pNA as substrate incubated for 60 mins by fluorometric assay; design: concentration or dose not given beside the values
Sequence of Procathepsin L (Homo sapiens) (P07711 114-333 limits assumed): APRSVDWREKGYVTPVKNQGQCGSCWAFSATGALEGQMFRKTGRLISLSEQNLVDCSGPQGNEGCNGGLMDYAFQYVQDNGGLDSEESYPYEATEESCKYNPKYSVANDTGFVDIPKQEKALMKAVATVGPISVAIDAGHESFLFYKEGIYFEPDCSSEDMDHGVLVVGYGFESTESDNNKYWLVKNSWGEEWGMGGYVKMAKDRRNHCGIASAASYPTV

[3] = target: T1, Cathepsin K (Homo sapiens) (UniProt P43235); test: Inhibition of human cathepsin K assessed as ratio of Kinact/Ki using Z-Phe-Arg-pNA as substrate incubated for 60 mins by fluorometric assay
T1 sequence (whole entry): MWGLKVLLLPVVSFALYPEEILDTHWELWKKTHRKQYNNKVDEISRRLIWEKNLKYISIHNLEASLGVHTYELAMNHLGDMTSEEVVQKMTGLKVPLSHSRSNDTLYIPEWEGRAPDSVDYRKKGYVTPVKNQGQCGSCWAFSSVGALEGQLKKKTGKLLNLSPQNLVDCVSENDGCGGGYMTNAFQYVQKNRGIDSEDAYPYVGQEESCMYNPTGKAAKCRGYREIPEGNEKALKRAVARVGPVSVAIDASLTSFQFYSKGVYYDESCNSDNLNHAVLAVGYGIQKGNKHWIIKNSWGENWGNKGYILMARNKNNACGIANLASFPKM

[4] = target: Cathepsin B (Homo sapiens) (UniProt P07858); test: Inhibition of human cathepsin B assessed as residual activity using Z-Arg-Arg-pNA as substrate incubated for 60 mins by fluorometric assay; design: concentration or dose not given beside the values
[5] = target: Cathepsin S (Homo sapiens) (UniProt P25774); test: Inhibition of human cathepsin S assessed as residual activity using Z-Phe-Val-Arg-pNA as substrate incubated for 60 mins by fluorometric assay
[6] = target: Procathepsin L (Homo sapiens) (UniProt P07711); test: Inhibition of human cathepsin L assessed as ratio of Kinact/Ki using Z-Phe-Arg-pNA as substrate incubated for 60 mins by fluorometric assay
[7] = target: Cathepsin B (Homo sapiens) (UniProt P07858); test: Inhibition of human cathepsin B assessed as ratio of Kinact/Ki using Z-Arg-Arg-pNA as substrate incubated for 60 mins by fluorometric assay
[8] = Drug uptake in human U2OS cells […] at 1 uM after 16 hrs by LysoTracker staining based fluorescence microscopy; assay type: ADME, subcellular
[9] = target: T1, Cathepsin K (Homo sapiens); test: Binding affinity to Cathepsin K in human U2OS cells at 1 uM measured after 16 hrs by SDS-PAGE; assay type: cell-based
[10] = target: T1, Cathepsin K (Homo sapiens); test: Binding affinity to Cathepsin K in human U2OS cells at 1 uM measured after 4 hrs by SDS-PAGE; assay type: cell-based
[11] = target: T1, Cathepsin K (Homo sapiens); test: Binding affinity to Cathepsin K in human U2OS cells at 1 uM measured after 24 hrs by SDS-PAGE; assay type: cell-based
[12] = target: T1, Cathepsin K (Homo sapiens); test: Binding affinity to recombinant human Cathepsin K at 5 uM pretreated with E64/K11777 pan-cathepsin inhibitor s for 15 mins followed by compound addition and measured after 1 hr by SDS-PAGE; conditions: time 75.0 min
[13] = target: T1, Cathepsin K (Homo sapiens); test: Inhibition of recombinant human Cathepsin K at 5 uM using Z-Phe-Arg-pNA as substrate incubated for 1 hr in presence of HEK293 cell lysate by SDS-PAGE; assay type: subcellular
[14] = target: T1, Cathepsin K (Homo sapiens); test: Binding affinity to Cathepsin K in human U2OS cells at 1 uM pretreated with E-64d for 1 hr followed by compound addition and measured after 24 hrs by SDS-PAGE; assay type: cell-based

Structure (SMILES)	Ratio [1] [M⁻¹ s⁻¹]	Activity [2] [%]	Ratio [3] [M⁻¹ s⁻¹]	Activity [4] [%]	Activity [5] [%]	Ratio [6] [M⁻¹ s⁻¹]	Ratio [7] [M⁻¹ s⁻¹]	Drug uptake [8]	Activity [9]	Activity [10]	Activity [11]	Activity [12]	inhibition [13]	Activity [14]
CC(C)C[C@H](NC(=O)c1cc2cc3c4c(c2oc1=O)CCCN4CCC3)C(=O)NC/C=C/C(=O)N(Cc1ccccc1)Cc1ccccc1		89	9550	96	80	2820	365							
CC(C)C[C@H](NC(=O)CCCC[N+]1=C(/C=C/C=C/C=C2/N(C)c3ccccc3C2(C)C)C(C)(C)c2ccccc21)C(=O)NC/C=C/C(=O)N(Cc1ccccc1)Cc1ccccc1.[Cl-]	505	89	35300	96				Active	Active	Active	Active	inactive	Active	inactive
CC(C)C[C@H](NC(=O)c1ccc(-c2cc3cc4c5c(c3oc2=O)CCCN5CCC4)cc1)C(=O)NC/C=C/C(=O)N(Cc1ccccc1)Cc1ccccc1	1510		84200											
CCCC[C@H](NC(=O)CCCC[N+]1=C(/C=C/C=C/C=C2/N(C)c3ccccc3C2(C)C)C(C)(C)c2ccccc21)C(=O)N[C@@H](CC(C)C)C(=O)NC/C=C/C(=O)N(Cc1ccccc1)Cc1ccccc1	556	91	17900	96										

Results, then the molecule that gave them:

Ratio [1] [M⁻¹ s⁻¹]	Activity [2] [%]	Ratio [3] [M⁻¹ s⁻¹]	Activity [4] [%]	Activity [5] [%]	Ratio [6] [M⁻¹ s⁻¹]	Ratio [7] [M⁻¹ s⁻¹]	Drug uptake [8]	Activity [9]	Activity [10]	Activity [11]	Activity [12]	inhibition [13]	Activity [14]	Structure (SMILES)
291	83	10600	91											CC(C)C[C@H](NC(=O)OC(C)(C)C)C(=O)NC/C=C/C(=O)N(Cc1ccccc1)Cc1ccccc1
485	76	6440	91											CCCC[C@H](NC(=O)OC(C)(C)C)C(=O)N[C@@H](CC(C)C)C(=O)NC/C=C/C(=O)N(Cc1ccccc1)Cc1ccccc1
